We go through 26 compounds from patent US11597721B2, “Heterocyclic compounds comprising pyridine useful as modulators of IL-12, IL-23 and/or IFNα responses” (BRISTOL-MYERS SQUIBB COMPANY, priority 2018, dated 2023).

pIC50: −log10 of the molar value. Read-outs that look alike come from different tables or passages of the source. Where only a bound is given, the exact number is not on record here.

This assay deals with IFNα-Induced STAT Phosphorylation. The assay can be described thus: IFNα-Induced STAT Phosphorylation in Human Whole Blood. Format: cell-based. The note with it: 1 h compound incubation, 1000 U/mL recombinant human IFNα A/D for 15 min, pSTAT5 in CD3 positive population, read-out: LE Human WB IFNα-Induced Stat Phosph. (IC50). An excerpt: IFNα-Induced STAT Phosphorylation in Human Whole Blood
The amount of pSTAT5 expression was quantitated by median fluorescence intensity after gating on the CD3 positive population.

The pIC50 is the negative decadic logarithm of the IC50, by convention in mol/L.

Consider `[2H]C([2H])([2H])NC(=O)c1nnc(Nc2ccc(-n3cccc(C(F)(F)F)c3=O)cn2)cc1Nc1nccc(-c2ncn(C)n2)c1OC` [Example 26, 4-{[3-methoxy-4-(1-methyl-1H-1,2,4-triazol-3-yl)pyridin-2-yl]amino}-N—(^2H3)methyl-6-{[2-oxo-3-(trifluoromethyl)-2H-[1,3′-bipyridine]-6-yl]amino}pyridazine-3-carboxamide], for which the pIC50 (Homo sapiens) is 7.52.
As for `[2H]C([2H])([2H])NC(=O)c1nnc(Nc2cc(Cl)ccn2)cc1Nc1nccc(-c2ncn(C)n2)c1OC` [Example 21, 6-[(4-chloropyridin-2-yl)amino]-4-{[3-methoxy-4-(1-methyl-1H-1,2,4-triazol-3-yl)pyridin-2-yl]amino}-N—(^2H3)methylpyridazine-3-carboxamide], for the setting “Homo sapiens”, the pIC50 was 7.52.
With `[2H]C([2H])([2H])NC(=O)c1nnc(Nc2ccc(OCC)nn2)cc1Nc1nccc(-c2ncn(C)n2)c1OC` [Example 36, 6-[(6-ethoxypyridazin-3-yl)amino]-4-{[3-methoxy-4-(1-methyl-1H-1,2,4-triazol-3-yl)pyridin-2-yl]amino}-N—(^2H3)methylpyridazine-3-carboxamide], the pIC50 (Homo sapiens) was 7.52.
`[2H]C([2H])([2H])NC(=O)c1nnc(Nc2cc(F)c(F)cn2)cc1Nc1nccc(-c2ncn(C)n2)c1OC` [Example 39, 6-[(4,5-difluoropyridin-2-yl)amino]-4-{[3-methoxy-4-(1-methyl-1H-1,2,4-triazol-3-yl)pyridin-2-yl]amino}-N—(^2H3)methylpyridazine-3-carboxamide]: the pIC50 (Homo sapiens) is 6.66.
On to `[2H]C([2H])([2H])NC(=O)c1cnc(NC(=O)CC)cc1Nc1nccc(-c2nnn(C)n2)c1OC` [Example 105, 4-{[3-methoxy-4-(2-methyl-2H-1,2,3,4-tetrazol-5-yl)pyridin-2-yl]amino}-N—(^2H3)methyl-6-propanamidopyridine-3-carboxamide], for which, for the setting “Homo sapiens”, the pIC50 is 7.05.
For `[2H]C([2H])([2H])NC(=O)c1nnc(Nc2cc(C#N)ccn2)cc1Nc1nccc(-c2ncn(C)n2)c1OC` [Example 13, 6-[(4-cyanopyridin-2-yl)amino]-4-{[3-methoxy-4-(1-methyl-1H-1,2,4-triazol-3-yl)pyridin-2-yl]amino}-N—(^2H3)methylpyridazine-3-carboxamide], the pIC50 (Homo sapiens) was less than 5.00.
The same measure, in the same setting: the same measure for `[2H]C([2H])([2H])NC(=O)c1cnc(NC(=O)C2CC2)cc1Nc1nccc(-c2noc(COC)n2)c1OC` [Example 45, 6-cyclopropaneamido-4-({3-methoxy-4-[5-(methoxymethyl)-1,2,4-oxadiazol-3-yl]pyridin-2-yl}amino)-N—(^2H3)methylpyridine-3-carboxamide]: 8.00.
The same measure, in the same setting: the same measure for `[2H]C([2H])([2H])NC(=O)c1nnc(NC(=O)CC(C)C)cc1Nc1nccc(-c2noc(CN(C)S(C)(=O)=O)n2)c1OC` [Example 70, 4-[(3-methoxy-4-{5-[(N-methylmethanesulfonamido)methyl]-1,2,4-oxadiazol-3-yl}pyridin-2-yl)amino]-N—(^2H3)methyl-6-(3-methylbutanamido)pyridazine-3-carboxamide]: 6.62; for `[2H]C([2H])([2H])NC(=O)c1nnc(NC(=O)OC)cc1Nc1nccc(-c2noc(CN3CCOCC3)n2)c1OC` [Example 53, methyl N-{5-[(3-methoxy-4-{5-[(morpholin-4-yl)methyl]-1,2,4-oxadiazol-3-yl}pyridin-2-yl)amino]-6-[(^2H3)methylcarbamoyl]pyridazin-3-yl}carbamate]: 6.30.
Regarding `[2H]C([2H])([2H])NC(=O)c1cnc(NC(=O)C2CC2)cc1Nc1nccc(-c2noc(COC(C)C)n2)c1OC` [Example 47, 6-cyclopropaneamido-4-[(3-methoxy-4-{5-[(propan-2-yloxy)methyl]-1,2,4-oxadiazol-3-yl}pyridin-2-yl)amino]-N—(^2H3)methylpyridine-3-carboxamide], the pIC50 (Homo sapiens) is 7.70.
Consider `[2H]C([2H])([2H])NC(=O)c1nnc(Nc2cc(C)ccn2)cc1Nc1nccc(-c2noc(COC)n2)c1OC` [Example 62, 4-({3-methoxy-4-[5-(methoxymethyl)-1,2,4-oxadiazol-3-yl]pyridin-2-yl}amino)-N—(^2H3)methyl-6-[(4-methylpyridin-2-yl)amino]pyridazine-3-carboxamide], for which the pIC50 (Homo sapiens) is 5.95.
`[2H]C([2H])([2H])NC(=O)c1cnc(NC(=O)CC2CC2)cc1Nc1nccc(-c2noc(C)n2)c1OC` [Example 44, 6-(2-cyclopropylacetamido)-4-{[3-methoxy-4-(5-methyl-1,2,4-oxadiazol-3-yl)pyridin-2-yl]amino}-N—(^2H3)methylpyridine-3-carboxamide]: under “Homo sapiens”, the pIC50 is 7.05.
With `[2H]C([2H])([2H])NC(=O)c1nnc(Nc2ccncc2)cc1Nc1nccc(-c2ncn(C)n2)c1OC` [Example 35, 4-{[3-methoxy-4-(1-methyl-1H-1,2,4-triazol-3-yl)pyridin-2-yl]amino}-N—(^2H3)methyl-6-[(pyridin-4-yl)amino]pyridazine-3-carboxamide], the pIC50 (Homo sapiens) was 6.70.
On to `[2H]C([2H])([2H])NC(=O)c1nnc(Nc2ccc(C(C)(C)O)cn2)cc1Nc1nccc(-c2noc(C)n2)c1OC` [Example 82, 6-{[5-(2-hydroxypropan-2-yl)pyridin-2-yl]amino}-4-{[3-methoxy-4-(5-methyl-1,2,4-oxadiazol-3-yl)pyridin-2-yl]amino}-N—(^2H3)methylpyridazine-3-carboxamide], for which the negative logarithm of the IC50 (pIC50) (Homo sapiens) was 7.52.
Regarding `[2H]C([2H])([2H])NC(=O)c1nnc(Nc2cc(C(F)(F)F)ccn2)cc1Nc1nccc(-c2ncn(C)n2)c1OC` [Example 32, 4-{[3-methoxy-4-(1-methyl-1H-1,2,4-triazol-3-yl)pyridin-2-yl]amino}-N—(^2H3)methyl-6-{[4-(trifluoromethyl)pyridin-2-yl]amino}pyridazine-3-carboxamide], the pIC50 (Homo sapiens) is 7.05.
Regarding `[2H]C([2H])([2H])NC(=O)c1cnc(NC(=O)C2CC2)cc1Nc1nccc(-c2noc(C)n2)c1OC` [Example 41, 6-cyclopropaneamido-4-{[3-methoxy-4-(5-methyl-1,2,4-oxadiazol-3-yl)pyridin-2-yl]amino}-N—(^2H3)methylpyridine-3-carboxamide], the pIC50 (Homo sapiens) was 7.52.
Regarding `[2H]C([2H])([2H])NC(=O)c1nnc(Nc2ccc(N3CCN(C(C)(C)C)C3=O)cn2)cc1Nc1nccc(-c2ncn(C)n2)c1OC` [Example 37, 6-{[5-(3-tert-butyl-2-oxoimidazolidin-1-yl)pyridin-2-yl]amino}-4-{[3-methoxy-4-(1-methyl-1H-1,2,4-triazol-3-yl)pyridin-2-yl]amino}-N—(^2H3)methylpyridazine-3-carboxamide], the pIC50 (Homo sapiens) was 6.89.
For `[2H]C([2H])([2H])NC(=O)c1nnc(Nc2ccccn2)cc1Nc1nccc(-c2ncn(C)n2)c1OC` [Example 28], the pIC50 is 6.57.
For `[2H]C([2H])([2H])NC(=O)c1cnc(Nc2cc(C)ccn2)cc1Nc1nccc(-c2nnn(C)n2)c1OC` [Example 103, 4-((3-methoxy-4-(2-methyl-2H-tetrazol-5-yl)pyridin-2-yl)amino)-N-(methyl-d3)-6-((4-methylpyridin-2-yl)amino)nicotinamide], the pIC50 (Homo sapiens) is 6.55.
For the compound `[2H]C([2H])([2H])NC(=O)c1nnc(NC(=O)CC(C)C)cc1Nc1nccc(-c2noc(CN3CCOC3=O)n2)c1OC` [Example 71, 4-[(3-methoxy-4-{5-[(2-oxo-1,3-oxazolidin-3-yl)methyl]-1,2,4-oxadiazol-3-yl}pyridin-2-yl)amino]-N—(^2H3)methyl-6-(3-methylbutanamido)pyridazine-3-carboxamide], the pIC50 (Homo sapiens) is 6.38.
`[2H]C([2H])([2H])NC(=O)c1nnc(NC(=O)CC(C)C)cc1Nc1nccc(-c2noc(CN3CCOCC3)n2)c1OC` [Example 69, 4-[(3-methoxy-4-{5-[(morpholin-4-yl)methyl]-1,2,4-oxadiazol-3-yl}pyridin-2-yl)amino]-N—(^2H3)methyl-6-(3-methylbutanamido)pyridazine-3-carboxamide]: the pIC50 (Homo sapiens) is 6.15.
For the compound `[2H]C([2H])([2H])NC(=O)c1nnc(NC(=O)C2CC2)cc1Nc1nccc(-c2noc(COC)n2)c1OC` [Example 50, 6-cyclopropaneamido-4-({3-methoxy-4-[5-(methoxymethyl)-1,2,4-oxadiazol-3-yl]pyridin-2-yl}amino)-N—(^2H3)methylpyridazine-3-carboxamide], the pIC50 (Homo sapiens) is 7.40.
On the same count and under the same terms, the result for `[2H]C([2H])([2H])NC(=O)c1nnc(Nc2ccc(N3CCOCC3)cn2)cc1Nc1nccc(-c2ncn(C)n2)c1OC` [Example 38, 4-{[3-methoxy-4-(1-methyl-1H-1,2,4-triazol-3-yl)pyridin-2-yl]amino}-N—(^2H3)methyl-6-{[5-(morpholin-4-yl)pyridin-2-yl]amino}pyridazine-3-carboxamide] reads 8.00; that for `[2H]C([2H])([2H])NC(=O)c1nnc(NC(=O)CC2COC2)cc1Nc1nccc(-c2noc(COC)n2)c1OC` [Example 76, 4-({3-methoxy-4-[5-(methoxymethyl)-1,2,4-oxadiazol-3-yl]pyridin-2-yl}amino)-N—(^2H3)methyl-6-[2-(oxetan-3-yl)acetamido]pyridazine-3-carboxamide], 6.74; that for `[2H]C([2H])([2H])NC(=O)c1nnc(Nc2cc(C)c(F)cn2)cc1Nc1nccc(-c2ncn(C)n2)c1OC` [Example 16, 6-[(5-fluoro-4-methylpyridin-2-yl)amino]-4-{[3-methoxy-4-(1-methyl-1H-1,2,4-triazol-3-yl)pyridin-2-yl]amino}-N—(^2H3)methylpyridazine-3-carboxamide], 6.92.
Turning to `[2H]C([2H])([2H])NC(=O)c1nnc(Nc2cc(C)n(C)n2)cc1Nc1nccc(-c2cnc(C(=O)N(C)C)cn2)c1OC` [Example 91, 6-((1,5-Dimethyl-1H-pyrazol-3-yl)amino)-4-((4-(5-(dimethylcarbamoyl)pyrazin-2-yl)-3-methoxypyridin-2-yl)amino)-N-(methyl-d3)pyridazine-3-carboxamide], the pIC50 (Homo sapiens) was 7.05.
